This note sets out measurements from US20220276262A1, “Methods and Products for Assessing Lysosomal System Flux” (SOUTH AUSTRALIAN HEALTH AND MEDICAL RESEARCH INSTITUTE …, priority 2019, published 2022).

Assay [1] concerns LC3B-II in PBMCs. Nature of the assay: Autophagic flux in PBMCs by lysosomal inhibition in whole blood, LC3B western blot. The assay is classed as cell-based, human. How it is done: Blood was collected in lithium heparin (Greiner Bio-One, vacuette tube 9 ml lithium heparin, 455084), or EDTA (Greiner Bio-One, vacuette tube 9 ml K3EDTA, 455036) blood collection tubes (6-9 ml). Unless otherwise stated, blood samples were split into two (2×3 ml) and pipetted into 10 ml conical centrifuge tubes. One of the blood samples was treated with a final concentration of 150 μM of chloroquine (CQ, chloroquine diphosphate, Sigma Aldrich, C6628) (9 μl of 50 mM for a final volume of 3 ml of blood). Blood was mixed gently by inverting both tubes 3-4 times. Both tubes (+CQ and −CQ) were incubated at 37° C. for 1 hour with rotation (10 revolutions per minute, Thermo Scientific Tube Revolver, 88881002).
After blood was incubated for 1 hour at 37° C., blood tubes were kept on ice to stop enzyme activity and vesicular trafficking. PBMCs were then isolated using standard procedures. To each tube, 3 ml of cold DPBS (Dulbecco's Phosphate-Buffered Saline, GIBCO) was added to 3 ml of blood (1:1) and samples were mixed by gently inverting tubes 3-4 times. Four ml of Lymphoprep (Stemcell Technologies, 07811) was carefully underlayed beneath the blood/DPBS mixture using a 10 mL syringe and a canula (sterile). This was repeated for both blood tubes (containing blood incubated without and with CQ). Tubes containing blood/DPBS underlayed with lymphoprep were centrifuged for 30 min at 800 g, with brake off at 4° C.
PBMCs were carefully aspirated with a 1 mL pipette and dispensed into a 10 mL conical centrifuge tube (approximately 2 ml volume containing PBMCs). PBMCs were then diluted with cold DPBS to a final volume of 5 ml. PBMCs and DPBS were mixed gently by inverting tubes 3-4 times. PBMCs were then pelleted by centrifugation at 600 g for 10 min at 4° C. (with brake). The supernatant was discarded.
PBMCs were resuspended with 1 ml of red blood cell lysis buffer (1×, BD Biosciences, 555899) and were mixed by gently pipetting. PBMCs were left on ice for 2 minutes, after which they were pelleted by centrifugation at 600 g for 5 min at 4° C. The supernatant was discarded and PBMCs were washed by resuspension in 5 ml of cold DPBS. PBMCs were pelleted again by centrifugation at 600 g for 5 min at 4° C. The supernatant was discarded and the cells were again resuspended in 1 ml of cold DPBS and this suspension was transferred to a 1.5 ml microcentrifuge tube. This tube was centrifuged at 2,000 g for 10 min at 4° C. The supernatant was discarded and the pellet containing PBMCs was frozen on dry ice and stored at −80° C. until biochemical analyses.
PBMC pellets were resuspended in a lysis buffer containing protease and phosphatase inhibitors (10 mM Tris pH 7.0, 1 mM EDTA, 0.5 mM EGTA, 1% Triton X-100, 0.1% sodium deoxycholate, 0.1% SDS, 140 mM NaCl, 2.5 mM sodium pyrophosphate, 1 mM sodium orthovanadate, 1 mM β-glycerophosphate (pH 7.4) protease inhibitor cocktail Roche (1×). Cell suspensions were then sonicated on ice 2×20 sec. Cell lysates were centrifuged at 2,000 g for 10 min at 4° C. and the supernatant collected.
Total protein was measured using a micro BCA protein assay kit [Thermo Fisher Scientific 23235]. Western blot analysis was performed using 10 μg of total protein of each of the homogenates that were electrophoresed at 130 V for 1 hour through 4-12% Bis-Tris Plus SDS-PAGE gels (Bolt™, Invitrogen, Thermofisher Scientific). The gels were transferred to a methanol-activated PVDF membrane at 35 V for 70 min. […]
A general note: Immunoblotting shows a protein as a band on a membrane.

Assay [2] concerns LC3A in PBMCs. The experiment in a line: Whole blood incubation, LC3A western blot in PBMCs. Format: cell-based, human. The settings on record: chloroquine 0-200 μM in whole blood, 1 h at 37° C., four subjects. How it is done: (§1) Blood was mixed gently by inverting both tubes 3-4 times.
(§2) (with brake). The supernatant was discarded.
(§3) This tube was centrifuged at 2,000 g for 10 min at 4° C.
(§4) The gels were transferred to a methanol-activated PVDF membrane at 35 V for 70 min.
(§5) The membranes were incubated overnight at 4° C. with primary antibodies diluted in block solution on a tube roller.

Assay [3] relates to P62 in PBMCs. The experiment in a line: Whole blood incubation, P62 western blot in PBMCs. The assay is classed as cell-based, human. The settings on record: chloroquine 0-200 μM in whole blood, 1 h at 37° C., four subjects. How it is done: as §1, §2, §3, §4, §5
Assay [4] relates to SQSTM1/P62 in PBMCs. Nature of the assay: Primary culture of PBMCs with or without chloroquine, SQSTM1/P62 western blot. The settings on record: 150 μM chloroquine, one-hour, isolated PBMCs in RPMI, N=3. Format: cell-based, human. The protocol: (§6) The supernatant was discarded.
Images were analyzed using ImageJ software.
These populations were verified by flow cytometry (FIG. 5B).

Assay [5] has as its system LC3B-II in PBMCs and PMNs. The settings on record: 150 μM chloroquine, one-hour, isolated PBMCs and PMNs in RPMI, N=3. How it is done:
as §6, §6, §3, §4

Entries after “also recorded” stand apart in the source; their conditions may differ.

Turning to `CO/C1=C\C(C)=C\[C@@H](C)[C@@H](O)[C@@H](C)C/C(C)=C/C=C/[C@H](OC)[C@@H]([C@@H](C)[C@@H](O)[C@H](C)[C@@]2(O)C[C@@H](O)[C@H](C)[C@@H](C(C)C)O2)OC1=O` [Bafilomycin, bafilomycin A1], the “LC3BII cargo in PBMCs” value in assay [1] (whole blood from four individuals, one hour at 37° C., ethanol vehicle) was “increased LC3BII cargo”.
With `O=C([O-])CN(CCN(CC(=O)[O-])CC(=O)O)CC(=O)[O-].[K+].[K+].[K+]` [EDTA], in assay [1] (EDTA tubes compared with lithium-heparin tubes, three subjects), the “LC3B-II signal in no-chloroquine samples (basal state)” value was “lower”.
As to `CCN(CC)CCCC(C)Nc1ccnc2cc(Cl)ccc12` (stereo not drawn) [chloroquine], the “LC3BII accumulation over time” value in assay [1] (150 μM chloroquine in whole blood, 0-120 minutes of incubation) is reported as “near-linear increase in LC3BII accumulation”. For the same compound, in assay [1] (chloroquine 0-200 μM in whole blood, 1 h at 37° C., four subjects), the “LC3B-II response to chloroquine titration (ΔLC3BII, measure of autophagic flux)” value is recorded as “robust directly proportional increase in response to increasing chloroquine concentration in whole blood up until 150 μM; also recorded: robust, directly proportional increase in response to increasing chloroquine concentration in whole blood up to 150 μM, after which a ceiling effect was observed”. Also, in assay [2], the “LC3A response to chloroquine treatment” value is on record as “not clearly responding”. Besides, in assay [3], the P62 protein abundance result is “increased protein abundance with chloroquine treatment was observed in three out of four subjects”. Besides, the “P62 level after chloroquine treatment” value in assay [4] is on record as “did not change”. Further, in assay [5], the “LC3B-II level (LC3B-II degradation inhibited)” value is listed as “increase in LC3B-II”.
Regarding lithium heparin [lithium-heparin], the “autophagic flux (ΔLC3B-II) by anti-coagulant of the collection tube” value in assay [1] (lithium-heparin compared with EDTA tubes, 150 μM chloroquine one-hour at 37° C., three subjects) was “greater”.
